Assay results published in PMC12751141, “Disrupting α-Synuclein–ClpP interaction restores mitochondrial function and attenuates neuropathology in Parkinson’s disease models” (Molecular Neurodegeneration, 2025).

Experiments:
[1] = test system: αSyn oligomer; test: αSyn oligomer ELISA, Tet-inducible αSyn SH-SY5Y cells; format: cell-based, human; details: 10 µM, two days, vs TAT, n = 4
Protocol: After one day incubation with doxycycline (1µM), αSyn tet-on inducible expression SHSY5Y cells were treated with TAT or CS2 peptides at 10 µM for another two days. The level of αSyn monomer released into culture medium was measured using LEGEND MAX human αSyn ELISA kit (448607, Biolegend). The level of extracellular and intracellular αSyn oligomers was measured using human alpha synuclein oligomer ELISA kit (MBS730762, Mybioresource).

[2] = test system: ClpP–αSyn interaction; test: ClpP–αSyn co-immunoprecipitation in iPSC-derived neurons; format: cell-based, human; details: A53T-αSyn neurons; 1 µM, five days; n = 4
Text: (§1) PD iPS cells lines (αSyn A53T, NN0004337, donor) and its isogenic corrected control line (NN0004344) were obtained from RUCDR Infinite Biologics. The iPS cells were differentiated into dopaminergic neuron-enriched neuronal culture with the protocol described previously. Briefly, iPS cell colonies were disassociated with accutase (Invitrogen), plated onto 6-well plates pre-coated with 2.5% Matrigel (BD Biosciences) and allowed to reach 80% confluence in mTeSR medium (Stem Cell Technology). For the first 10 days, cells were treated with SB431542 (10 µM; Tocris Bioscience) and Noggin (100 ng/ml) in Neural Media (NM) with FGF2 ([…]) and EGF ([…]). NM media contained: Neurobasal and DMEM/F12 (1:1), B-27 Supplement Minus Vitamin A (50×, Invitrogen), N2 Supplement (100X, Invitrogen), GlutaMAX (Invitrogen, 100×), 100 units/ml penicillin and 100 µg/ml streptomycin (Fisher); for the next 4 days, cells were treated with human recombinant Sonic hedgehog (SHH, 200 ng/ml) in neuronal differentiation medium. […]
Cells or tissues were lysed in total lysis buffer (50mM Tris-HCl, pH 7.5, 150mM NaCl, 1% Triton X-100, and protease inhibitor). […] The beads with immuno-precipitates were pulled down at 4000 g and washed four times with total lysis buffer/in vitro interaction buffer in the presence of 0.1% Triton X-100 and were analyzed by western blot analysis. […]

[3] = test system: ClpP–αSyn interaction; test: ClpP–αSyn proximity ligation assay in iPSC-derived neurons; format: cell-based, human; details: A53T-αSyn neurons; 1 µM, five days; n = 20 images per group
Text: as §1, with “medium. Neuronal differentiation medium contained Neurobasal and DMEM/F12 (1:3), B27, N2, GlutaMax and PS.” for “medium.”
Proximity ligation assay (PLA) was performed using the Duolink® In Situ Starter Kit with Detection Reagents Green (mouse/rabbit; DUO92101, DUO92014). […] PLA puncta were detected as distinct fluorescent spots and imaged by confocal microscopy (Fluoview FV3000; Olympus). […]

[4] = test system: SH-SY5Y cells; test: Cytotoxicity by LDH in SH-SY5Y cells; format: cell-based
Protocol: The bimolecular fluorescence was examined 24-hour after transfection (n = 3, one-way ANOVA with Tukey’s post-hoc test, scale bar = 30 μm). (D) Quantification of the concentration (ng/ml) of extracellular αSyn monomer and oligomer, and intracellular αSyn oligomer in Tet-inducible SH-SY5Y cells that were pre-treated with TAT or CS2 peptide 30-minute before adding doxycycline (Dox) to induce αSyn expression. The concentration of αSyn species was determined by ELISA (n = 4, one-way ANOVA with Tukey’s post-hoc test; data are mean ± SEM). (E) Representative images of Mito-SOX staining in SH-SY5Y cells that were pre-treated with TAT or CS2 peptide and transfected with split Venus-αSyn vectors. Mitochondrial ROS production was determined by Mito-SOX staining after 24-hour transfection (n = 4, two-tailed Student’s t test, scale bar = 30 μm).
(G) Quantification of cytotoxicity examined by LDH assay in SH-SY5Y cells treated with indicated peptides (n = 3, one-way ANOVA with Tukey’s post-hoc test, data are mean ± SEM).

## CC(C)[C@H](NC(=O)CNC(=O)CNC(=O)CCCCCNC(=O)[C@H](CCCNC(=N)N)NC(=O)[C@H](CCCNC(=N)N)NC(=O)[C@H](CCCNC(=N)N)NC(=O)[C@H](CCC(N)=O)NC(=O)[C@H](CCCNC(=N)N)NC(=O)[C@H](CCCNC(=N)N)NC(=O)[C@H](CCCCN)NC(=O)[C@H](CCCCN)NC(=O)[C@H](CCCNC(=N)N)NC(=O)CNC(=O)[C@@H](N)Cc1ccc(O)cc1)C(=O)N[C@H](C(=O)N[C@H](C(=O)N[C@@H](C)C(=O)O)[C@@H](C)O)C(C)C [CS2, TAT-C6-GGVVTA]
[1]
  extracellular αSyn oligomer: decreased levels
  intracellular αSyn oligomer: decreased levels
[2]
  ClpP–αSyn interaction by co-IP: markedly reduced the ClpP–αSyn interaction
[3]
  ClpP–αSyn interaction by PLA: markedly reduced the ClpP–αSyn interaction
[4]; SH-SY5Y stably overexpressing A53T-αSyn, 2-day treatment, 12-hour serum starvation, n = 4
  cell death, A53T-αSyn: significantly reduced cell death
[4]; SH-SY5Y stably overexpressing WT-αSyn, 2-day treatment, 12-hour serum starvation, n = 4
  cell death, WT-αSyn: significantly reduced cell death
[4]; healthy SH-SY5Y, 3 days, n = 3
  cell viability, healthy cells: did not affect cell viability
